Columns and labels:
Assay type in all cases: cell-based
human platelets [1] = experiment: Annexin V-affinity assay, human platelets
Description: (§1) Mouse and human washed platelets (1×10^8/ml) were pre-incubated with different concentrations of ML265 ([…]). Washed platelets activated with thrombin (0.5 U/ml)+convulxin (100 ng/ml) were used as a positive control. The samples were added to 1× Annexin V-binding buffer (BD Biosciences). Following this, annexin V-FITC antibody was added to each sample, gently mixed, and incubated at room temperature for 15 minutes in the dark. After incubation, 1× Annexin-binding buffer was added to each tube and analyzed by a Becton Dickinson FACSCalibur flow cytometer.

human platelets [2] = experiment: P-selectin expression (α-granule secretion), human platelets; settings: stimulus-activated human platelets pretreated with ML265
Description: Platelets (1×10^8 cells in 100 μl) were pre-incubated for 10 min either in presence or absence of ML265 (50 and 100 μM) then stimulated by convulxin or TRAP without stirring. Following this, platelets were labeled with PE-labeled anti-CD61 antibody and FITC conjugated anti-CD62P antibody. The platelet samples were incubated for 30 min in the dark at room temperature and analyzed on the flow cytometer (FACS Calibur, Becton Dickinson). An amorphous region (gate) was drawn to differentiate the platelets from the noise and multi-platelet particles. After compensation for FITC and PE, CD61-positive 10,000 events were collected for each sample.

mouse platelets = experiment: Annexin V-affinity assay, mouse platelets; settings: increasing concentrations of ML265
Description: as §1

[3] = system: PI3 kinase-mediated Akt/GSK3β signaling; experiment: Western blot of Akt/GSK3β phosphorylation, human platelets; settings: convulxin- or thrombin-mediated, ML265 50 and 100 μM
Description: Platelet proteins were separated on 4-20% SDS-PAGE (sodium dodecyl sulfate-polyacrylamide gel electrophoresis) gradient gels and electrophoretic transferred to PVDF (polyvinylidene fluoride) membrane by using Bio-Rad western blotting system. For PKM2 dimer and tetramer study 6% native gels are used. Membranes were blocked with 5% BSA or skimmed milk in 10 mM Tris-HCl, 150 mM NaCl, pH 8.0 (TBS) containing 0.05% Tween-20 for one hour at room temperature. Blots were incubated for overnight with primary antibody, followed by horseradish peroxidase-labeled secondary antibody for one hour. Blots were developed using enhanced chemiluminescence and quantified using Image J software from NIH (Bethesda, MD, USA).

murine platelets [4] = experiment: ATP secretion from dense granules, mouse platelets; settings: stimulus-activated mouse platelets pretreated with ML265
Description: (§2) Platelet rich plasma (PRP) or washed platelets (2×10^8/ml) treated with vehicle (DMSO) or ML265 (50 and 100 μM) were stirred (1200 rpm) at 37° C. for 2 min in a whole blood/optical lumi-aggregometer (Chrono-log; model 700-2) before the addition of agonists (convulxin, collagen, thrombin, PAR4, TRAP (PAR1 agonist) or adenosine diphosphate [ADP]). Aggregation was measured as percent change in light transmission, where 100% refers to transmittance through the blank sample (PRP/Buffer). Platelet dense granule secretion was determined by measuring the release of ATP using luciferin-luciferase reagent. To examine the effect of ML265 on ATP secretion, washed platelets were pretreated with vehicle (DMSO) or ML265 (50 and 100 μM) for 10 minutes before stimulation with various agonists. ATP release was performed in a lumi-aggregometer (Chrono-log; model 700-2) at 37° C.

human whole blood = experiment: Bioflux flow chamber assay, human whole blood on collagen
Description: (§3) In vitro thrombosis assays were performed using BioFlux™ 200 (Fluxion Biosciences, USA) microfluidics flow chamber (Nayak et al., 2018). The channels were coated with Type I collagen (100 μg/ml) for one hour at room temperature and then blocked with 0.5% BSA for 30 minutes. Platelets were isolated from citrated whole blood as described above, washed, labeled with the fluorescent dye (calcein AM; 2 μM) and were reconstituted back with PPP and remaining blood containing leukocytes and RBC. The whole blood pretreated with ML265 or vehicle (DMSO) was perfused over the collagen-coated plate at shear stress 1500 s^−1 for 5 minutes. Experiments were performed in triplicates using whole blood from human and mice. The fluorescently labeled platelets/thrombi on the collagen-coated surface were analyzed using ImageJ software from NIH (Bethesda, MD, USA).

human platelets [5] = experiment: In vitro platelet aggregation, human platelet-rich plasma; settings: convulxin, collagen, TRAP and ADP, ML265 50 and 100 μM
Description: as §2

mouse whole blood = experiment: Bioflux flow chamber assay, mouse whole blood on collagen; settings: ML265 150 μM
Description: as §3

murine platelets [6] = experiment: Clot retraction, mouse platelet-rich plasma; settings: thrombin 0.25 U/ml, ML265 50 and 100 μM
Description: To measure thrombin-stimulated fibrin clot retraction PRP was treated with ML265 (50 and 100 μM) or vehicle control (DMSO) for 10 minutes. Tyrode buffer was added to test tubes, along with red blood cells, to allow visualization of the clot. This was followed by the addition of PRP. Clot formation was initiated by adding thrombin (final concentration 0.25 U/ml) to the test tubes. Photographs were taken every 15 minutes and the assay was terminated after 60 minutes at which time the clot in the vehicle-treated samples were seen to have retracted completely. Clot area was analyzed using Image J software from NIH (Bethesda, MD, USA).

PKM2 dimers = molecular target: T1, PKM2 dimers (Mus musculus, UniProt P52480); experiment: Native Western blot of PKM2 dimer and tetramer in stimulated mouse platelets; settings: mouse platelets stimulated with convulxin or thrombin
T1 construct: PKM2 dimer and tetramer expression in platelets pre-treated with vehicle or ML265; endogenous in cells; host or cells: mouse platelets
T1 sequence (P52480 2-531 limits assumed): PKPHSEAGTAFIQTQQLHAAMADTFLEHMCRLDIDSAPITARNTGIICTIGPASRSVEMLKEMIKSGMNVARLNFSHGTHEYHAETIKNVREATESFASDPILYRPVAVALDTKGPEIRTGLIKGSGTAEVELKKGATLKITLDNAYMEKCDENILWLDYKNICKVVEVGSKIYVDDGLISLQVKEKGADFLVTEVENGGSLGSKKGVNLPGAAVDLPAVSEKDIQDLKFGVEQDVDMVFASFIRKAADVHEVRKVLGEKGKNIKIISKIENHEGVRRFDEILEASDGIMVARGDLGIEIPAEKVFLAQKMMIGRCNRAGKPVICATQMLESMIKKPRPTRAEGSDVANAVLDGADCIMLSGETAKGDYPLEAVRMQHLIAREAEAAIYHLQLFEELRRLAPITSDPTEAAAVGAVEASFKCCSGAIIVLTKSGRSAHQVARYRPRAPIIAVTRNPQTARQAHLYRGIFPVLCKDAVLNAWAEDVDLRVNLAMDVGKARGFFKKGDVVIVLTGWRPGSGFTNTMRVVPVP
Description: Mouse platelets were prepared. Blood from anesthetized mice was drawn from the retro-orbital plexus and collected in 1.5 mL polypropylene tubes containing 300 μL of enoxaparin (0.3 mg/mL; Sanofi-Aventis, US LLC). The blood was centrifuged at 100 g for 5 minutes, and the platelet-rich plasma (PRP) was collected in a fresh tube. To prevent platelet activation, PRP was incubated with PGI2 (2 μg/mL) at 37° C. for 5 minutes. PRP was further centrifuged at 600 g for 5 minutes. The obtained pellets were suspended in 1 mL modified Tyrode-N-2-hydroxyethylpiperazine-N′-2-ethane sulfonic acid (HEPES) buffer (137 mM NaCl, 0.3 mM Na2HPO4, 2 mM KCl, 12 mM NaHCO3, 5 mM N-2-hydroxyethylpiperazine-N′-2-ethane sulfonic acid, 5 mM glucose, 0.35% bovine serum albumin, pH 7.2). The washing step was repeated twice with Tyrode's to remove PGI2, and platelets were fluorescently labeled with calcein green (wherever required), AM (2.5 μg/mL; Molecular Probes) for 10 minutes at 37° C.
Platelet proteins were separated on 4-20% SDS-PAGE (sodium dodecyl sulfate-polyacrylamide gel electrophoresis) gradient gels and electrophoretic transferred to PVDF (polyvinylidene fluoride) membrane by using Bio-Rad western blotting system. For PKM2 dimer and tetramer study 6% native gels are used. […] Blots were developed using enhanced chemiluminescence and quantified using Image J software from NIH (Bethesda, MD, USA).

## Cn1c2cc([S+](C)[O-])sc2c2cnn(Cc3cccc(N)c3)c(=O)c21 (centres unmarked) [ML265, 6-[(3-aminophenyl)methyl]-4,6-dihydro-4-methyl-2-(methylsulfinyl)-5H-thieno[2′,3′:4,5]pyrrolo[2,3-d]pyridazine-5-one]
Human platelets [1]
  concentration not inducing phosphatidyl serine surface expression (annexin V): ≤ 300 µM
Human platelets [1]; increasing concentrations of ML265
  apoptosis in resting platelets (Annexin V binding): does not induce
Human platelets [2]
  α-granule secretion (P-selectin exposure): significant decrease
Mouse platelets
  apoptosis in resting platelets (Annexin V binding): does not induce
[3]
  Akt phosphorylation: down-regulated
  GSK3β phosphorylation: down-regulated
Murine platelets [4]
  dense-granule secretion (ATP release): significant decrease
Human whole blood; ML265 150 μM, collagen, 1500 s-1
  reduction in the thrombus growth rate vs vehicle control: ~5 fold
Human whole blood; ML265 150 μM, collagen, 1500 s-1, 5 minutes
  reduction in percent of the area covered by platelets vs vehicle control: ~5 fold
Human whole blood; ML265 150 μM, vehicle slope 237.3
  rate of thrombus growth (slope over time): 37.92
Human whole blood; ML265 50 or 100 μM, collagen, 1500 s-1, 5 minutes
  thrombus formation vs vehicle control: no significant difference
Human platelets [5]
  stimulus-dependent platelet aggregation: reduced
Mouse whole blood; collagen, 1500 s-1
  thrombus growth rate vs vehicle control: marked reduction
Mouse whole blood; collagen, 1500 s-1, 5 minutes
  percent of the area covered by platelets vs vehicle control: marked reduction
Mouse whole blood; vehicle slope 236.1
  rate of thrombus growth (slope over time): 61.65
Murine platelets [6]
  clot retraction: significant decrease
PKM2 dimers
  PKM2 dimer formation: limited

Reference: patent publication US12337005B2, “Methods of treating thrombosis” (UNIVERSITY OF IOWA RESEARCH FOUNDATION, priority 2020, dated 2025)
